Results from patent US20230277508A1, “USE OF COMPOUND AS CYP2E1 INHIBITOR” (SHANGHAI LING XI BIOTECHNOLOGY DEVELOPMENT CO., LTD., priority 2020, published 2023).

Experiments:
[1] = test system: other CYP enzymes; assay: Determination of selectivity of a CYP2E1 inhibitor: other CYP enzymes; assay type: biochemical; conditions: mixed human liver microsome, probe substrates
Source text: With a mixed liver microsome of a healthy individual as a research object, probe drugs CYP1A2, CYP2A6, CYP2B6, CYP2C8, CYP2C9, CYP2C19, CYP2D6, CYP2E1, and CYP3A4 were selected to determine an in vitro inhibitory effect of an inhibitor to be tested on the metabolism of the probe drugs CYP1A2, CYP2A6, CYP2B6, CYP2C8, CYP2C9, CYP2C19, CYP2D6, CYP2E1, and CYP3A4 for the mixed liver microsome of the healthy human, and the selectivity of the inhibitor to be tested for a CYP2E1 inhibitory effect was evaluated.
The CYP1A2 probe is 6.25 μM to 800 μM phenacetin or 27.5 μM to 12,520 μM caffeine; • the CYP2A6 probe is 0.156 μM to 20 μM coumarin or 12.5 μM to 2,000 μM nicotine; • the CYP2B6 probe is 7.8 μM to 500 μM bupropion or 0.25 mM to 30 mM cyclophosphamide; • the CYP2C8 probe is 2.5 μM to 80 μM paclitaxel or 0.125 μM to 128 μM amodiaquine; • the CYP2C9 probe is 31.25 μM to 2,000 μM tolbutamide or 0.1 μM to 200 μM diclofenac; • the CYP2C19 probe is 3.9 μM to 500 μM omeprazole or 1.95 μM to 1,000 μM mephenytoin; • the CYP2D6 probe is 0.625 μM to 96 μM dextromethorphan or 0.0195 μM to 80 μM propafenone; and • the CYP3A4 probe is 0.39 μM to 50 μM midazolam or 1.98 μM to 1,000 μM testosterone.
An incubation system in a total volume of 100 μL was adopted, including a substrate, an inhibitor of different concentrations, a liver microsomal protein, and PBS. […]

[2] = molecular target: T1, CYP2E1 (Rattus norvegicus, UniProt P05182); assay: In vivo inhibition of metabolism of DEN by CYP2E1 in rats (toxicokinetics of DEN); set-up: species or system SD rats
T1 construct: from tissue; host or cells: whole animal (SD rats); endogenous enzyme in vivo
Experimental: Experimental method: An inhibitory effect of the compound SMI0 on CYP2E1 in rats was investigated by a self-controlled crossover experiment design. In a first round of experiments, DEN alone was intraperitoneally injected at 50 mg/kg (30 SD rats in total) in the first week; after a one-week interval, a second round of experiments were conducted as follows: each rat was first intragastrically administered with the compound SMI0 at a low, medium, or high dose (6 mg/kg, 30 mg/kg, or 150 mg/kg), and 5 min later, each rat was intraperitoneally injected with DEN at 50 mg/kg (10 rats were set for each of low, medium, and high doses); blood was collected at 2 min, 7 min, 15 min, and 30 min and 1 h, 2 h, 4 h, 6 h, 9 h, 12 h, 24 h, 36 h, 48 h, and 60 h; a DEN concentration in plasma was determined at different blood collection time points, and a toxicokinetic parameter of DEN was calculated; and plasma DEN was detected by high performance liquid chromatography (HPLC) as follows: 100 μL of plasma was added to 10 μL of perchloric acid, a resulting mixture was vortexed for 3 min and then centrifuged at 12,000 rpm for 10 min, and 10 μL of a resulting supernatant was collected and injected into an instrument, where the PLC was conducted with methanol:water=50:50 as a mobile phase and a detection wavelength of 240 nm.

[3] = test system: liver steatosis and hepatitis in mice caused by a high-fat diet; assay: Mouse liver steatosis and hepatitis model induced by a high-fat diet; assay type: in vivo, C57/6J mice; conditions: 22 weeks, vs model group
Experimental: Experimental method: Healthy male C57/6J mice were fed with a high-fructose, high-fat, and high-cholesterol feed to prepare mouse liver steatosis and hepatitis models, and a control group was fed with a low-fat and low-sugar control feed. An SMI0 intervention group was divided into a low-dose intervention group and a high-dose intervention group, which were intragastrically administered with the compound SMI0 at 30 mg/kg and 150 mg/kg every day from the beginning of modeling to the 22nd week of modeling. At the end of the 22-week experiment, blood was collected from the orbit, a body weight was measured, and then the mice each were sacrificed. The weight and appearance of a liver (color, texture, and presence or absence of nodules of the liver) were recorded. Some liver specimens were subjected to HE staining and then observed, and a steatosis score of mice in each group was recorded; and Masson staining was conducted to evaluate a liver fibrosis status of mice, and an oil red O staining area percentage and an LCA staining inflammation score were determined (model group, n=8 mice; SMI0 compound low-dose group, […]).
The pathological results of HE staining of a liver tissue were subjected to quantitative scoring based on the following criteria to determine a steatosis severity:
The pathological results of Masson staining of a liver tissue were subjected to quantitative scoring based on the following criteria to determine a fibrosis severity: […]

[4] = test system: H22 liver cancer cells; assay: Direct effect on H22 liver cancer cells; assay type: cell-based; conditions: up to 100 μmol/L, 24 h
Experimental: Experimental method: HepG2 liver cancer cells and H22 liver cancer cells in a logarithmic growth phase each were selected and inoculated into a 96-well plate at a concentration of 1*10^5 cells/mL, and then 100 μL of a basic medium including SMI0 at different concentrations (0 μmol/L, 0.16 μmol/L, 0.8 μmol/L, 4 μmol/L, 20 μmol/L, and 100 μmol/L) was added to each well; and 24 h later, the proliferation activity of HepG2 was determined by a CCK8 method, a migration ability of HepG2 was determined by wound-healing assay, and an apoptosis ability of HepG2 was determined by flow cytometry (FCM).

[5] = SMI0 high-dose 150 mg/kg ig daily
[6] = SMI0 low-dose 30 mg/kg ig daily

T1 sequence (P05182 whole entry): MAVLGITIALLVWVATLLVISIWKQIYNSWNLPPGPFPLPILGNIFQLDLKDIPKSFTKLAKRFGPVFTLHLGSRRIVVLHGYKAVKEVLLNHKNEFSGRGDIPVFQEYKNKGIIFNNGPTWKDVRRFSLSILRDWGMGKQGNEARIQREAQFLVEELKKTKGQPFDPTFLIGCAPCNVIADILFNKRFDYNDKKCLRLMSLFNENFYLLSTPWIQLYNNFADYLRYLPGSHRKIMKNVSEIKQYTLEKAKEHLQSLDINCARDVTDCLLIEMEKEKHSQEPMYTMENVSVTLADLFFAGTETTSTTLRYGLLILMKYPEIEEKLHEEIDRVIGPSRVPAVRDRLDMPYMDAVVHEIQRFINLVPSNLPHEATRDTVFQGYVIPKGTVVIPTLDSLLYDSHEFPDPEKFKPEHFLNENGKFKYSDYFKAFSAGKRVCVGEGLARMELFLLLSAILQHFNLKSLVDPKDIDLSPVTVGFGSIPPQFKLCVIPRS

CC(=O)c1scnc1C [SMI0]
inhibitory effect for other CYP enzymes [1]: no significant inhibitory effect | inhibition rate (CL of DEN) ([2]; SMI0 high dose 150 mg/kg ig): 86.77% | inhibition rate (CL of DEN) ([2]; SMI0 low dose 6 mg/kg ig): 62.43% | inhibition rate (CL of DEN) ([2]; SMI0 medium dose 30 mg/kg ig): 80.42% | liver inflammation level (number of LCA-positive cell staining foci) [3, 5]: significantly reduced | oil red O staining area percentage [3, 5]: significantly reduced | steatosis score [3, 5]: significantly reduced | liver coefficient [3, 6]: significantly reduced | oil red O staining area percentage [3, 6]: significantly reduced | steatosis score [3, 6]: significantly reduced | effect on the proliferation, migration, and apoptosis of H22 liver cancer cells [4]: no significant inhibitory effect
